Series [1] can be described thus: in vivo. The note with it: rat, 100 ug/kg, Concentration in Serum. The method, then: In 0.1 ml of physiological saline are dissolved 100 μg of TAP-144 and 5 mg of α-cyclodextrin, and in the manner of Experimental Example 1, the 0.1 ml/kg equivalent of the solution is administered into the nasal cavity (the dose of TAP-144: 100 μg/kg).
For series [2] the following is noted: rat, in vivo.
Procedure: (§1) SD-strain mature female rats (weighing about 270 g, 14 to 18 weeks old, in groups of 4 to 5 individuals) at diestrus as selected by the vaginal smear test covering a period of at least one week are anesthetized with pentobarbital and phenobarbital at 8-11 a.m., and a solution prepared by dissolving 500 μg of TAP-144 and 20 mg (2%), 50 mg (5%) or 100 mg (10%) of α-cyclodextrin in physiological saline in an amount to make 1 ml is administered into the vagina with about 12 mg of cotton soaked therewith at the dose level of 0.2 ml/kg (corresponding 100 μg/kg of TAP-144).
Series [3] can be described thus: in vivo. The note with it: female, SD, rat, iv, 100 ug/kg.
Procedure: as §1

In the series “in vivo [1]” (SD (Sprague-Dawley), sc), `CCNC(=O)[C@@H]1CCCN1C(=O)[C@H](CCCNC(=N)N)NC(=O)[C@H](CC(C)C)NC(=O)[C@@H](CC(C)C)NC(=O)[C@H](Cc1ccc(O)cc1)NC(=O)[C@H](CO)NC(=O)[C@H](Cc1c[nH]c2ccccc12)NC(=O)[C@H](Cc1c[nH]cn1)NC(=O)[C@@H]1CCC(=O)N1` [TAP-144] showed a level at 0.5 h of 44 ng/mL, a level at 1 h of 40.2 ng/mL, a level at 2 h of 24 ng/mL and a level at 4 h of 6.7 ng/mL. In “in vivo [1]” (SD, inhaled or intranasal), this molecule gave a level at 0.5 h of 3.2 ng/mL and a level at 4 h of 3.9 ng/mL. For the same molecule, the “promotion of vaginal absorption as compared with the control vaginal preparation” value in series [2] was “about 6 times”. The “Concentration of TAP-144 in serum” value in series [2] (100 ug/kg, 0.5 h) was 32.1 ng/mL. Besides, in the series “in vivo [3]”, the level at 5 min is 212 ng/mL, the level at 10 min is 173 ng/mL, the level at 0.5 h came out at 74.2 ng/mL and the level at 1 h is 39.3 ng/mL. Moreover, in the series “in vivo [3]”, the level at 2 h was found to be 6.76 ng/mL, the level at 4 h is 1.83 ng/mL and the level at 6 h is less than 0.13 ng/mL.

The values above are taken from patent publication US4670419A, “Pharmaceutical composition and its rectal use” (Takeda Chemical Industries, Ltd., priority 1982, dated 1987).
